Data on 14 compounds can be found in patent publication US10219516B2, “Molecules having pesticidal utility, and intermediates, compositions, and processes, related thereto” (priority 2015, dated 2019).

Molecules are shown by their SMILES. Where two headings read alike, the source gives them in different places.

What all share (type): in vivo
Experiment [1] deals with Yellow Fever Mosquito (Aedes aegypti, AEDSAE). The experiment can be described thus: Bioassay on Yellow Fever Mosquito (YFM), 96-well plate larval assay. The settings on record: for YFM (Biological Results, rating): Species YFM (Yellow Fever Mosquito). An outline of the steps:
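Each well was scored for mortality after 3 days at room temperature under a non-evaporative lid. Test molecules came from DMSO masters (4000 ppm stock) diluted with water/acetone 90:10 and dispensed into six replicate plates, which were then infested with roughly 1-day-old larvae in liver-powder water.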

The test system of experiment [2] is Beet Armyworm (Spodoptera exigua, LAPHEG). Briefly: Bioassay on Beet Armyworm (BAW), 128-well diet tray assay. The procedure, abridged: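 Second-instar larvae, one to five per well, placed on artificial diet surface-treated with 50 μg/cm^2 compound applied in 90:10 acetone-water and dried. Held 5–7 days at 25° C., 14:10 light-dark. Percent mortality recorded per well and averaged over eight wells.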

Experiment [3] relates to Green Peach Aphid (Myzus persicae, MYZUPE). The experiment can be described thus: Bioassay on Green Peach Aphid (GPA), foliar spray on infested cabbage seedlings. The settings on record: 72 h. How it is done: Certain molecules disclosed in this document were tested against GPA using procedures described in the following example. In the reporting of the results, the “GPA & YFM Rating Table” was used (See Table Section).
Cabbage seedlings grown in 3-inch pots, with 2-3 small (3-5 cm) true leaves, were used as test substrate. The seedlings were infested with 20-50 GPA (wingless adult and nymph stages) one day prior to chemical application. Four pots with individual seedlings were used for each treatment. Test molecules (2 mg) were dissolved in 2 mL of acetone/methanol (1:1) solvent, forming stock solutions of 1000 ppm test molecule. The stock solutions were diluted 5× with 0.025% Tween 20 in water to obtain the solution at 200 ppm test molecule. A hand-held aspirator-type sprayer was used for spraying a solution to both sides of […] leaves until runoff. Reference plants (solvent check) were sprayed with the diluent only containing 20% by volume of acetone/methanol (1:1) solvent. Treated plants were held in a holding room for three days at approximately 25° C. and ambient relative humidity (RH) prior to grading. Evaluation was conducted by counting the number of live aphids per plant under a microscope. Percent control was measured using Abbott's correction formula (W. S. Abbott, “A Method of Computing the Effectiveness of an Insecticide” 3. Econ. Entomol. 18 (1925), pp. 265-267) as follows. Corrected % Control=100*(X−Y)/X where X=No. of live aphids on solvent check plants and Y=No. of live aphids on treated plants. The results are indicated in the table entitled “Table ABC: Biological Results” (See Table Section).

The subject of experiment [4] is Cabbage Looper (Trichoplusia ni, TRIPNI). Briefly: Bioassay on Cabbage Looper (CL), 128-well diet tray assay. The following applies: Trichoplusia ni. An outline of the steps:
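Test molecule is dissolved in 90:10 acetone-water and applied at 50 μg/cm^2 onto artificial diet, then dried. One to five second-instar larvae go into each of eight wells. Trays, sealed but vented, stay at 25° C., 14:10 light-dark, five to seven days, after which mortality is averaged.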

[5] abbreviates: Species BAW (Beet Armyworm), read-out: BAW (Biological Results, rating).
Setting [6] is: foliar, Species GPA (Green Peach Aphid), read-out: GPA (Biological Results, rating).
Setting [7] is: Species CL (Cabbage Looper), read-out: CL (Biological Results, rating).

As to `C#CCN(C(=O)c1cc(NC(=O)[C@H]2[C@H](c3ccc(F)c(Cl)c3)C2(Cl)Cl)ccc1Cl)c1ccc(F)cc1F` [F414, 2-Chloro-5-((1R,3R)-2,2-dichloro-3-(3-chloro-4-fluorophenyl)cyclopropane-1-carboxamido)-N-(2,4-difluorophenyl)-N-(prop-2-yn-1-yl)benzamide], the YFM rating result in experiment [1] (Yellow Fever Mosquito, 96-well plate larval assay) is given as “A (80-100)”. Besides, the pest or weed control at 50 µg/cm2 fell in the range of 50 to 100% in experiment [2] (Beet Armyworm, 128-well diet tray assay, read-out: BAW rating) and 50 to 100% in experiment [4] (Cabbage Looper, 128-well diet tray assay, read-out: CL rating). Moreover, the pest or weed control at 200 µg/mL in experiment [3] (Green Peach Aphid, foliar spray on cabbage seedlings, read-out: GPA rating) is 80 to 100%.
Consider `CCCN(C(=O)c1cc(NC(=O)[C@H]2[C@H](c3cc(Cl)cc(Cl)c3)C2(Cl)Cl)ccc1Cl)c1ccc(F)cc1` (relative stereo) [F101, trans-2-Chloro-5-(2,2-dichloro-3-(3,5-dichlorophenyl)cyclopropane-1-carboxamido)-N-(4-fluorophenyl)-N-propylbenzamide], for which, in experiment [1], the “YFM (Biological Results, rating)” value was “A (80-100)”. Further, the pest or weed control at 50 µg/cm2 in experiment [2] (setting [5]) and in experiment [4] (setting [7]) was 50 to 100% throughout. In experiment [3] (setting [6]), the pest or weed control at 200 µg/mL lay within 0 to 80%.
As to `Cc1cc(C#N)ccc1NC(=O)c1cc(NC(=O)[C@H]2[C@H](c3ccc(Cl)c(Cl)c3)C2(Cl)Cl)ccc1Cl` (relative stereo) [F55, trans-2-Chloro-N-(4-cyano-2-methylphenyl)-5-(2,2-dichloro-3-(3,4-dichlorophenyl)cyclopropane-1-carboxamido)benzamide], the “YFM (Biological Results, rating)” value in experiment [1] is reported as “A (80-100)”. Moreover, the pest or weed control at 50 µg/cm2 in experiment [2] (setting [5]) and in experiment [4] (setting [7]) was 50 to 100% each time. In addition, the pest or weed control at 200 µg/mL in experiment [3] (setting [6]) was in the range of 80 to 100%.
Take `CN(C(=O)c1cc(NC(=O)[C@H]2[C@H](c3cc(Cl)cc(Cl)c3)C2(Cl)Cl)ccc1Cl)c1ccc(F)cc1` (relative stereo) [F19, trans-2-Chloro-5-(2,2-dichloro-3-(3,5-dichlorophenyl)cyclopropane-1-carboxamido)-N-(4-fluorophenyl)-N-methylbenzamide]: in experiment [1], the “YFM (Biological Results, rating)” value is reported as “A (80-100)”. The pest or weed control at 50 µg/cm2 in experiment [2] (setting [5]) and in experiment [4] (setting [7]) was 50 to 100% in each case. The pest or weed control at 200 µg/mL in experiment [3] (setting [6]) was in the range of 80 to 100%.
With `O=C(Nc1ccc(F)cc1)c1nc(NC(=O)[C@H]2[C@H](c3cc(Cl)cc(Cl)c3)C2(Cl)Cl)ccc1Cl` (relative stereo) [F131, trans-3-Chloro-6-(2,2-dichloro-3-(3,5-dichlorophenyl)cyclopropane-1-carboxamido)-N-(4-fluorophenyl)picolinamide], in experiment [1], the “YFM (Biological Results, rating)” value was “A (80-100)”. The pest or weed control at 50 µg/cm2 in experiment [2] (setting [5]) and in experiment [4] (setting [7]) was 50 to 100% throughout. In addition, the pest or weed control at 200 µg/mL in experiment [3] (setting [6]) lay within 0 to 80%.
As for `O=C(Nc1ccc(F)cc1)c1cccc(NC(=O)[C@H]2[C@H](c3cc(Cl)cc(Cl)c3)C2(Cl)Cl)c1` (relative stereo) [F2, trans-3-(2,2-Dichloro-3-(3,5-dichlorophenyl)cyclopropane-1-carboxamido)-N-(4-fluorophenyl)benzamide], the “YFM (Biological Results, rating)” value in experiment [1] is “A (80-100)”. For the same compound, the pest or weed control at 50 µg/cm2 in experiment [2] (setting [5]) and in experiment [4] (setting [7]) was 50 to 100% in each case. The pest or weed control at 200 µg/mL in experiment [3] (setting [6]) fell in the range of 0 to 80%.
On to `CN(C(=O)c1cc(NC(=O)[C@H]2[C@H](c3cc(Cl)cc(Cl)c3)C2(Cl)Cl)ccc1Cl)c1cccc(F)c1` (relative stereo) [F34, trans-2-Chloro-5-(2,2-dichloro-3-(3,5-dichlorophenyl)cyclopropane-1-carboxamido)-N-(3-fluorophenyl)-N-methylbenzamide], for which the “YFM (Biological Results, rating)” value in experiment [1] is reported as “A (80-100)”. Also, the pest or weed control at 50 µg/cm2 in experiment [2] (setting [5]) and in experiment [4] (setting [7]) was 50 to 100% throughout. The pest or weed control at 200 µg/mL in experiment [3] (setting [6]) lay in the range of 0 to 80%.
In the case of `CN(C(=O)c1cc(NC(=O)[C@H]2[C@H](c3ccc(OC(F)(F)F)c(Cl)c3)C2(Cl)Cl)ccc1Cl)c1ccc(F)cc1` (relative stereo) [F80, trans-2-Chloro-5-(2,2-dichloro-3-(3-chloro-4-(trifluoromethoxy)phenyl)cyclopropane-1-carboxamido)-N-(4-fluorophenyl)-N-methylbenzamide], the “YFM (Biological Results, rating)” value in experiment [1] is “A (80-100)”. In addition, the pest or weed control at 50 µg/cm2 in experiment [2] (setting [5]) and in experiment [4] (setting [7]) was 50 to 100% each time. In addition, the pest or weed control at 200 µg/mL in experiment [3] (setting [6]) fell in the range of 80 to 100%.
In the case of `O=C(Nc1ccc(F)cc1)c1ccc(Cl)c(NC(=O)[C@H]2[C@H](c3cc(Cl)cc(Cl)c3)C2(Cl)Cl)c1` (relative stereo) [F130, trans-4-Chloro-3-(2,2-dichloro-3-(3,5-dichlorophenyl)cyclopropane-1-carboxamido)-N-(4-fluorophenyl)benzamide], the “YFM (Biological Results, rating)” value in experiment [1] is on record as “B (More than 0-Less than 80)”. The pest or weed control at 200 µg/mL in experiment [3] (setting [6]) fell in the range of 0 to 80%. Also, the pest or weed control at 50 µg/cm2 in experiment [4] (setting [7]) was 50 to 100%.
As to `O=C(Nc1ccc(F)cc1)c1cc(NC(=O)[C@H]2[C@H](c3cc(Cl)cc(Cl)c3)C2(Cl)Cl)ccn1` (relative stereo) [F126, trans-4-(2,2-dichloro-3-(3,5-dichlorophenyl)cyclopropane-1-carboxamido)-N-(4-fluorophenyl)picolinamide], the pest or weed control at 50 µg/cm2 in experiment [2] (setting [5]) and in experiment [4] (setting [7]) was 50 to 100% in each case. Moreover, in experiment [3] (setting [6]), the pest or weed control at 200 µg/mL lay in the range of 0 to 80%.
On to `CNC(=O)c1ccc(NC(=O)c2cc(NC(=O)[C@H]3[C@H](c4cc(Cl)cc(Cl)c4)C3(Cl)Cl)ccc2Cl)cc1` (relative stereo) [F152, trans-2-Chloro-5-(2,2-dichloro-3-(3,5-dichlorophenyl)cyclopropane-1-carboxamido)-N-(4-(methylcarbamoyl)phenyl)benzamide], for which the pest or weed control at 50 µg/cm2 in experiment [2] (setting [5]) and in experiment [4] (setting [7]) was 50 to 100% in each case. Moreover, the pest or weed control at 200 µg/mL in experiment [3] (setting [6]) was 0 to 80%.
Take `O=C(Nc1ccc(OC(F)F)cc1)c1cc(NC(=O)[C@H]2[C@H](c3cc(Cl)cc(Cl)c3)C2(Cl)Cl)ccc1Cl` (relative stereo) [F148, trans-2-Chloro-5-(2,2-dichloro-3-(3,5-dichlorophenyl)cyclopropane-1-carboxamido)-N-(4-(difluoromethoxy)phenyl)benzamide]: the pest or weed control at 50 µg/cm2 in experiment [2] (setting [5]) and in experiment [4] (setting [7]) was 50 to 100% in each case. In experiment [3] (setting [6]), the pest or weed control at 200 µg/mL fell in the range of 0 to 80%.
In the case of `O=C(Nc1ccc(F)cc1)c1cc(NC(=O)[C@H]2[C@H](c3cc(Cl)cc(Cl)c3)C2(Cl)Cl)c(F)cc1F` (relative stereo) [F49, trans-5-(2,2-Dichloro-3-(3,5-dichlorophenyl)cyclopropane-1-carboxamido)-2,4-difluoro-N-(4-fluorophenyl)benzamide], the pest or weed control at 50 µg/cm2 in experiment [2] (setting [5]) and in experiment [4] (setting [7]) was 50 to 100% each time. For the same compound, the pest or weed control at 200 µg/mL in experiment [3] (setting [6]) lay within 0 to 80%.
With `Cc1cc([C@H]2[C@H](C(=O)Nc3ccc(Cl)c(C(=O)N(C)c4ccc(F)cc4)c3)C2(Cl)Cl)cc(Cl)c1Cl` (relative stereo) [F124, trans-2-Chloro-5-(2,2-dichloro-3-(3,4-dichloro-5-methylphenyl)cyclopropane-1-carboxamido)-N-(4-fluorophenyl)-N-methylbenzamide], the pest or weed control at 50 µg/cm2 in experiment [2] (setting [5]) and in experiment [4] (setting [7]) was 50 to 100% throughout. The pest or weed control at 200 µg/mL in experiment [3] (setting [6]) lay in the range of 0 to 80%.
